Consider four compounds from patent US9376391B2, “Difluoromethyl-nicotinic-tetrahydronaphthyl carboxamides as fungicides” (BAYER CROPSCIENCE AKTIENGESELLSCHAFT, priority 2012, dated 2016).

One data set has as its system Puccinia recondita. As to the kind of experiment: In vivo preventive test on Puccinia recondita (brown rust on wheat). The conditions noted are these: wheat, spray, graded 12 days after contamination vs control plants. The gist of the method:
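Wheat seedlings ("Scipion") sprayed with compound at the 1-leaf stage, inoculated 24 h later with Puccinia recondita spores (100 000 spores per ml). Incubated 24 h at 20° C and 100% RH, then 10 days at 20° C and 70-80% RH. Efficacy (%) versus solvent-treated controls graded 12 days after contamination.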

A further data set relates to Phakopsora pachyrhizi. The experiment in a line: Phakopsora test (soybeans)/preventive. The class given is in vivo. The conditions noted are these: evaluated 7 days after inoculation. As for the experimental part:
Phakopsora Test (Soybeans)/Preventive
To produce a suitable preparation of active compound, 1 part by weight of active compound is mixed with the stated amounts of solvent and emulsifier, and the concentrate is diluted with water to the desired concentration.
To test for preventive activity, young plants are sprayed with the preparation of active compound at the stated rate of application. After the spray coating has dried on, the plants are inoculated with an aqueous spore suspension of the causal agent of soybean rust (Phakopsora pachyrhizi) and stay for 24 h without light in an incubation cabinet at approximately 24° C. and a relative atmospheric humidity of 95%.
The plants remain in the incubation cabinet at approximately 24° C. and a relative atmospheric humidity of approximately 80% and a day/night interval of 12 h.
The test is evaluated 7 days after the inoculation. 0% means an efficacy which corresponds to that of the untreated control, while an efficacy of 100% means that no disease is observed.

Another data set relates to Sphaerotheca fuliginea. As to the kind of experiment: In vivo preventive test on Sphaerotheca fuliginea (powdery mildew on cucurbits). The conditions noted are these: preventive spray, gherkin plants, grading 12 days after contamination. The gist of the method: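 Gherkin plants at Z11 cotyledon stage were sprayed with compound in acetone/tween/DMSO/water. After 24 h they were inoculated with S. fuliginea spores (100 000 spores per ml) and incubated at about 20° C and 70-80% RH. Percent efficacy versus solvent-treated controls was scored 12 days post-inoculation.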

A short description of data set [1]: log P by HPLC on reversed phase columns (EEC directive 79/831 Annex V.A8). The class given is physicochemical. As to conditions: Table 1, formula (I); HPLC/LC-MS at pH 2.7, 0.1% formic acid in water / acetonitrile, gradient 10% to 95%.
For another data set, the system named is Septoria tritici. As to the kind of experiment: In vivo preventive test on Septoria tritici (leaf spot on wheat). As to conditions: 500 ppm, preventive spray, wheat plants, grading 24 days after contamination. The gist of the method: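 Wheat cv. Scipion sprayed preventively at 1-leaf stage; inoculated 24 h later with Septoria tritici spores (500 000 spores per ml). Incubation 72 h at 18 °C, 100% RH, then 21 days at 90% RH; % efficacy graded 24 days after contamination against solvent-treated controls.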

The next data set deals with Pyrenophora teres. As to the kind of experiment: In vivo preventive test on Pyrenophora teres (net blotch on barley). As to conditions: barley, spray, graded 14 days after contamination vs control plants. How it is done:
In Vivo Preventive Test on Pyrenophora teres (Net Blotch on Barley)
The active ingredients tested are prepared by homogenization in a mixture of acetone/tween/DMSO, and then diluted with water to obtain the desired active material concentration.
Barley plants (“Plaisant” variety), sown in starter cups on a 50/50 peat soil-pozzolana substrate and grown at 22° C., are treated at the 1-leaf stage (10 cm height) by spraying with the active ingredient prepared as described above. Plants, used as controls, are treated with the mixture of acetone/tween/DMSO/water not containing the active material.
After 24 hours, the plants are contaminated by spraying the leaves with an aqueous suspension of Pyrenophora teres spores (12 000 spores per ml). The spores are collected from a 12-day-old culture. The contaminated barley plants are incubated for 48 hours at 20° C. and at 100% relative humidity, and then for 12 days at 20° C. at 70-80% relative humidity.
Grading (% of efficacy) is carried out 14 days after the contamination, in comparison with the control plants. plants.

A further data set has as its system Alternaria brassicae. The experiment in a line: In vivo preventive test on Alternaria brassicae (leaf spot on radish). The conditions noted are these: spray, graded 6 days after contamination vs control plants. The gist of the method: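 Radish cv. Pernod Clair at cotyledon stage (grown 17 °C) sprayed with compound in acetone/tween/DMSO/water, then inoculated 24 h later with A. brassicae spores (50 000 spores per ml). Incubation 20 °C, 100% RH; % efficacy graded 6 days post-inoculation versus solvent-treated controls.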

For another data set, the system named is Uromyces appendiculatus. As to the kind of experiment: In vivo preventive test on Uromyces appendiculatus (bean rust). As to conditions: preventive spray, bean plants, grading 11 days after contamination. In outline:
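'Saxa' bean plants at the 2-leaf stage were sprayed with compound and inoculated 24 h later with U. appendiculatus spores (150 000 spores per ml). Plants were incubated 24 h at 20 °C and 100% RH, then 10 days at 20 °C and 70–80% RH. Percent efficacy versus solvent-treated controls was graded 11 days post-inoculation.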

For the compound `CC1CC(C(C)C)c2cccc(NC(=O)c3cccnc3C(F)F)c21` (stereo not drawn) [Example 3], the Eff. % in the data set with Puccinia recondita (dose 500 ppm) is 97%; with Phakopsora pachyrhizi (100 ppm of active ingredient), 100%; in the data set on Sphaerotheca fuliginea (500 ppm) it was 95%; with Septoria tritici it was 90%; in the data set with Pyrenophora teres (dose 500 ppm), 83%; with Alternaria brassicae (dose 500 ppm), 86%. The compound further showed an Eff. % in the data set with Uromyces appendiculatus (500 ppm) of 100%. Besides, the “logP^[a]” value in data set [1] is 3.65^[a].
For `CC1CC(C)(C)c2cccc(NC(=O)c3cccnc3C(F)F)c21` (stereo not drawn) [Example 13], the Eff. % in the data set on Puccinia recondita (dose 500 ppm) is recorded as 100%; in the data set with Phakopsora pachyrhizi (100 ppm of active ingredient), 99%; with Sphaerotheca fuliginea (500 ppm), 100%; with Septoria tritici, 83%; with Pyrenophora teres (dose 500 ppm), 100%; with Alternaria brassicae (dose 500 ppm) it was 93%. Also, the Eff. % in the data set on Uromyces appendiculatus (500 ppm) came out at 100%. The “logP^[a]” value in data set [1] was 3.25^[a].
Turning to `CC(C)CC1CC(C)c2c(NC(=O)c3cccnc3C(F)F)cccc21` (stereo not drawn) [Example 57], the Eff. % with Puccinia recondita (dose 500 ppm) amounted to 98%; in the data set with Phakopsora pachyrhizi (10 ppm of active ingredient) it was 93%; in the data set with Sphaerotheca fuliginea (500 ppm) it was 98%; in the data set on Pyrenophora teres (dose 500 ppm) it was 97%; in the data set on Alternaria brassicae (dose 500 ppm), 97%; in the data set with Uromyces appendiculatus (500 ppm), 100%. The “logP^[a]” value in data set [1] was 4.15^[a].
For the compound `CCC1OC(CC)(CC)c2cccc(NC(=O)c3cccnc3C(F)F)c21` (racemic) [Example 71], the Eff. % with Puccinia recondita (dose 100 ppm) stood at 98%; with Phakopsora pachyrhizi (10 ppm of active ingredient) it was 94%; in the data set on Sphaerotheca fuliginea (100 ppm), 100%; in the data set with Pyrenophora teres (dose 100 ppm) it was 92%; in the data set with Alternaria brassicae (dose 100 ppm), 88%; with Uromyces appendiculatus (100 ppm), 100%. Moreover, in data set [1], the “logP^[a]” value is 3.23^[a].
